Experimental data: US20160051514A1, “METHODS FOR TREATMENT OF CARDIOMYOPATHY” (THE BRIGHAM AND WOMEN'S HOSPITAL, INC., priority 2013, published 2016)
“Also recorded” adds a separate entry of the source.

Key:
[1] = system: zebrafish ventricular myocytes expressing 2057del2 plakoglobin; assay: INa and IK1 current densities by whole-cell voltage-clamp in zebrafish ventricular myocytes; format: cell-based, zebrafish (Danio rerio); conditions: for Effect on reduced INa and IK1 current densities (summary statements): myocytes expressing 2057del2 plakoglobin, after exposure
From the text: (§1) Zebrafish ventricular myocyte isolation and culture: Zebrafish (Danio rerio) were bred and maintained at 28′C with 14 hr exposure to light and 10 hr to dark (day/night cycle) according to IACUC-approved protocols. Hearts were extracted from anesthetized fish at 21-56 days post-fertilization(dpf) using micro-dissecting tweezers (Roboz Surgical Instruments), washed vigorously in culture medium (M199, primocin, HEPES, L-glutamine, 10% fetal bovine serum) and placed in fresh medium. Ventricles were separated at the atrio-ventricular junction, pooled in a tube containing enzyme solution (HBSS without calcium/magnesium, Trypsin, PCN/Streptomycin, HEPES) at 37° C. and agitated in a thermomixer at 1000-1200 RPM. Dissociated cells were collected every 10 min from supernatants and transferred to tubes containing culture medium and 10% fetal bovine srum to halt trypsinization. Cells were then pelleted by centrifugation, resuspended in fresh culture medium, and seeded on sterile cover slips coated with laminin (20 μg/ml)^11 at 28° C. in a 5% CO2 incubator. After 36 hr, culture medium was changed and unattached cells were removed.
INa and INa activation and inactivation were measured by whole-cell voltage-clamp according to standard protocols.^14,15 Cells were held at a membrane potential of −80 mV after which pulses between -120 and +50 mV were applied in 5 mV steps each with a duration of 250 ms. Inactivation was measured from membrane potentials between −120 mV and +50 mV at maximal activation.^14,15 In view of the small cell size (cell capacitance of 6.7±2.6pF; n=47) it was not necessary to reduce extracellular [Nal. Access resistance of the patch electrodes was <7 MΩ Measurements showing incomplete control of membrane potential were eliminated from analysis.^14,15
The inward rectifier current IK1 was measured using the protocol described by Dobrev.^16,17 Ramp clamps of 1400 ms duration were applied between −120 and +20 mV. After each clamp, external solution containing Ba^2+(1 mM) was applied via a large pore pipette placed adjacent to the clamped cell. IK1 was defined as the total current minus the Ba^2+-insensitive current. ^16 Subtraction of the two currents was performed using a MatLab™ script.
as §1, with “culture:” for “culture: Zebrafish (Danio rerio) were bred and maintained at 28′C with 14 hr exposure to light and 10 hr to dark (day/night cycle) according to IACUC-approved protocols.”, “3-4 or 5-7 weeks post-fertilization” for “21-56 days post-fertilization(dpf)”, “(calcium/magnesium free-HBSS containing trypsin, penicillin/streptomycin,” for “(HBSS without calcium/magnesium, Trypsin, PCN/Streptomycin,”, “serum” for “srum”, “μg/ml)” for “μg/ml)^11”, “28.5°” for “28°”
INa activation and inactivation were measured by whole-cell voltage-clamp according to standard protocols (32,33). Cells were held at a membrane potential of −80 mV after which pulses between −120 and +50 mV were applied in 5 mV steps each with a duration of 250 ms. Inactivation was measured from membrane potentials between −120 mV and +50 mV at maximal activation (26,33). In view of the small size of zebrafish myocytes (cell capacitance of 6.7±2.6pF; n=47) it was not necessary to reduce extracellular [Na+] to achieve voltage control; extracellular [Na+] was reduced to 50 mM in studies of neonatal rat ventricular myocytes Access resistance of the patch electrodes was <7 MΩ. Measurements showing incomplete control of membrane potential were eliminated from analysis. […]

[2] = system: 2057del2 plakoglobin zebrafish; assay: Survival and cardiac physiology in the zebrafish model of ACM; format: in vivo
Description: In-house software (implemented in MATLAB™) was used to determine heart rate, while measurements of ventricular long and short axes in both diastole and systole were obtained using ImageJ™. Cardiac output was measured as diastolic minus systolic ventricular volume multiplied by heart rate, as outlined by Shin et al (30). Fractional shortening was calculated as end-diastolic diameter minus end-systolic diameter divided by end-diastolic diameter.
Survival studies: Embryos were kept in petri dishes until 7 dpf and then transferred to nursery tanks with larval food. Observations for phenotype and survival were recorded for several weeks. Data are presented as a Kaplan-Meier curve using Graphpad™ software.

[3] = 3-4 weeks post-fertilization, 2057del2 plakoglobin + SB2
[4] = 3-4 weeks post-fertilization, Control + SB2

Cn1cc(C2=C(c3ccc(Cl)cc3Cl)C(=O)NC2=O)c2ccccc21 [SB216763]
IK1: current density at −100 mV [1, 3]: −15 pA/pF
IK1: slope between −90 and −15 mV [1, 3]: −21 pA/pF*100 mV
INa: peak current density [1, 3]: −163 pA/pF
IK1: current density at −100 mV [1, 4]: −18 pA/pF
IK1: slope between −90 and −15 mV [1, 4]: −27 pA/pF*100 mV
INa: peak current density [1, 4]: −230 pA/pF
INa: peak current density ([1]; 7-8 weeks post-fertilization, 2057del2 plakoglobin + SB2): −172 pA/pF
INa: peak current density ([1]; 7-8 weeks post-fertilization, Control + SB2): −168 pA/pF
Effect on INa and IK1 current densities in cells expressing 2057del2 plakoglobin ([1]; early exposure of embryos): marked normalization of these currents; also recorded: almost completely normalized these currents
Effect on INa or IK1 current densities in control myocytes ([1]; early exposure of embryos): had no effect
Effect on reduced INa and IK1 current densities, short-term exposure of isolated cells ([1]; isolated myocytes from transgenic fish treated in culture for 36 hr): reversed reductions in INa and IK1 current densities
Effect on reduced INa and IK1 current densities (summary statements) [1]: rapidly normalized
Effect on reduced INa and IK1 current densities (summary statements) ([1]; listed as SB2168763): rapid, near total recovery
Survival at 3 months ([2]; longer term treatment of larval fish (7 days)): substantially increased survival
Cardiac phenotype (bradycardia, contractility, heart failure) ([2]; mutant fish): rescues the heart failure phenotype; also recorded: prevented heart failure; also recorded: prevented bradycardia and contractility defects
Survival at 28 days ([2]; mutant fish): significantly increased survival
Cardiac phenotype (bradycardia, contractility, heart failure) ([2]; mutant fish, listed as SB2): reduced nppb expression and bradycardia, improved contractility
Survival / mortality of mutant fish ([2]; time not stated): reduced mortality; also recorded: increased survival
Developmental abnormalities ([2]; wide range of doses during embryonic or larval development): No developmental abnormalities were observed
